The values that follow are results of earlier work, collected in US11564888B2, “Extended release compositions comprising trihexyphenidyl” (KASHIV SPECIALTY PHARMACEUTICALS, LLC, priority 2018, dated 2023).

The conditions of this data set: in vivo.

Molecules are shown by their SMILES.

Turning to `OC(CCN1CCCCC1)(c1ccccc1)C1CCCCC1` (stereo not drawn) [trihexyphenidyl, α-cyclohexyl-α-phenyl-1-piperidinepropanol], the plasma half-life result is given as “about 3.7 hours”.
